For data set [1], the target named is T1, Human thrombin (Homo sapiens, UniProt P00734).
T1 construct: purchased Haematologic Technologies Inc
The data set can be described thus: thrombin protease inhibition assay, chromogenic substrate S-2238. It counts as biochemical. The following applies: 3 nM human thrombin, 125 μM S-2238, 10 min pre-incubation, RT. The method, then:
Compounds described herein can be assayed, by a variety of methods known in the art and described herein, for inhibition of biological activity, e.g., protease activity, of a variety of proteins, e.g., thrombin.
The thrombin activity reported herein (e.g., Table A) was obtained as follows. […] Thrombin was assayed in buffer containing 0.05 M Tris (pH 7.4), 0.015 M NaCl and 0.01% PEG-8000. The final concentration of enzyme used was 3 nM thrombin. […] All assays were performed in 96-well microtiter plates at room temperature (RT). […] Inhibitor IC50 values were determined by adding test compound as ten point, three-fold serial dilutions in buffer solution, as known in the art. The plate was read at 10 minutes after substrate addition. The IC50 was calculated by plotting the percent (%) inhibition against compound concentration and fitting the data to a constrained four parameter sigmoidal curve, as known in the art.

For data set [2] the following is noted: after 7 weeks of administration; cited from earlier work.
Data set [3] relates to glioma. The settings on record: systemic use, rat glioma models; cited from earlier work.
Data set [4] has as its system lung fibroblasts. The settings on record: mouse, in vivo; cited from earlier work.
Data set [5] relates to malignant breast tumors. The settings on record: cited from earlier work.
For data set [6] the following is noted: cited from earlier work.
Data set [7] relates to prostate cancer cell line PC-3. The settings on record: PC-3, concentration dependent manner; cited from earlier work.
Data set [8] relates to tumor. The settings on record: cited from earlier work.

Non-standard residues stand in square brackets, D forms with d. No end group written: not given here. Oic = O=C(O)[C@@H]1C[C@@H]2CCCC[C@@H]2N1; Phe(4-Me) = Cc1ccc(C[C@H](N)C(=O)O)cc1

Usually IC50 stands for the midpoint of a concentration-inhibition curve. Take `O=C(c1cccc2c1OCCO2)n1nc(NCc2ccc(Cl)s2)c(F)c1C1CCOCC1` [Compound 35, N-[(5-chlorothiophen-2-yl)methyl]-1-(2,3-dihydro-1,4-benzodioxine-5-carbonyl)-4-fluoro-5-(oxan-4-yl)-1H-pyrazol-3-amine]: the IC50 in data set [1] is > 1000 nM. The same measure, in the same setting: then `COc1ccc(C(=O)n2nc(C3CCOCC3)c(F)c2NCc2ccc(Cl)s2)c(OC)c1` [Compound 36, N-[(5-chlorothiophen-2-yl)methyl]-1-(2,4-dimethoxybenzoyl)-4-fluoro-3-(oxan-4-yl)-1H-pyrazol-5-amine], with < 100 nM. Same read-out and setting: then `COc1ccc(C(=O)n2nc(C3CCNCC3)c(F)c2NCc2ccc(Cl)s2)c(OC)c1` [Compound 37, N-[(5-chlorothiophen-2-yl)methyl]-1-(2,4-dimethoxybenzoyl)-4-fluoro-3-(piperidin-4-yl)-1H-pyrazol-5-amine], with < 100 nM. Still for that read-out and setting: next, `COc1ccc(C(=O)n2nc(-c3ccccc3)c(F)c2NCc2ccc(Cl)s2)c(OC)c1` [Compound 38, N-[(5-chlorothiophen-2-yl)methyl]-1-(2,4-dimethoxybenzoyl)-4-fluoro-3-phenyl-1H-pyrazol-5-amine]: < 100 nM; `COc1ccc(C(=O)n2nc(NCc3ccc(Cl)s3)c(F)c2C2CCOCC2)c(OC)c1` [Compound 39, N-[(5-chlorothiophen-2-yl)methyl]-1-(2,4-dimethoxybenzoyl)-4-fluoro-5-(oxan-4-yl)-1H-pyrazol-3-amine]: > 1000 nM; `COc1ccccc1C(=O)n1nc(C2CCN(S(=O)(=O)c3cccc4c(N(C)C)cccc34)CC2)c(F)c1NCc1ccc(Cl)s1` [Compound 40, N-[(5-chlorothiophen-2-yl)methyl]-3-(1-[5-(dimethylamino)naphthalen-1-yl]sulfonylpiperidin-4-yl)-4-fluoro-1-(2-methoxybenzoyl)-1H-pyrazol-5-amine]: > 1000 nM. With `COc1ccccc1C(=O)n1nc(-c2ccccn2)c(F)c1NCc1ccc(Cl)s1` [Compound 43, N-[(5-chlorothiophen-2-yl)methyl]-4-fluoro-1-(2-methoxybenzoyl)-3-(pyridin-2-yl)-1H-pyrazol-5-amine], the IC50 in data set [1] was < 100 nM. Consider `COc1ccccc1C(=O)n1nc(-c2ccccc2)c(F)c1NCc1ccc(Cl)s1` [Compound 44, N-[(5-chlorothiophen-2-yl)methyl]-4-fluoro-1-(2-methoxybenzoyl)-3-phenyl-1H-pyrazol-5-amine], for which, in data set [1], the half-maximal inhibitory concentration (IC50) was < 100 nM. Still for that read-out and setting: next, `COc1ccccc1C(=O)n1nc(NCc2ccc(Cl)s2)c(F)c1C1CCOCC1` [Compound 45, N-[(5-chlorothiophen-2-yl)methyl]-4-fluoro-1-(2-methoxybenzoyl)-5-(oxan-4-yl)-1H-pyrazol-3-amine]: > 1000 nM; `CC1(C(=O)n2nc(-c3ccccc3)c(F)c2NCc2ccc(Cl)s2)COC1` [Compound 46, N-[(5-chlorothiophen-2-yl)methyl]-4-fluoro-1-(3-methyloxetane-3-carbonyl)-3-phenyl-1H-pyrazol-5-amine]: > 1000 nM; `CC1(C(=O)n2nc(-c3ccccc3)c(F)c2NCc2ccc(Cl)s2)CCOCC1` [Compound 48, N-[(5-chlorothiophen-2-yl)methyl]-4-fluoro-1-(4-methyloxane-4-carbonyl)-3-phenyl-1H-pyrazol-5-amine]: < 100 nM. Still for that read-out and setting: then `O=C(c1ccoc1)n1nc(C2CCOCC2)c(F)c1NCc1ccc(Cl)s1` [Compound 49, N-[(5-chlorothiophen-2-yl)methyl]-4-fluoro-1-(furan-3-carbonyl)-3-(oxan-4-yl)-1H-pyrazol-5-amine], with < 100 nM; and `O=C(c1ccoc1)n1nc(C2CCNCC2)c(F)c1NCc1ccc(Cl)s1` [Compound 50, N-[(5-chlorothiophen-2-yl)methyl]-4-fluoro-1-(furan-3-carbonyl)-3-(piperidin-4-yl)-1H-pyrazol-5-amine], with < 100 nM; and `O=C(c1ccoc1)n1nc(-c2ccccc2)c(F)c1NCc1ccc(Cl)s1` [Compound 51, N-[(5-chlorothiophen-2-yl)methyl]-4-fluoro-1-(furan-3-carbonyl)-3-phenyl-1H-pyrazol-5-amine], with < 100 nM. For `COCCOc1ccc(C(=O)n2nc(C3CCOCC3)c(F)c2NCc2ccc(Cl)s2)cc1` [Compound 52, N-[(5-chlorothiophen-2-yl)methyl]-4-fluoro-1-[4-(2-methoxyethoxy)benzoyl]-3-(oxan-4-yl)-1H-pyrazol-5-amine], in data set [1], the IC50 was < 100 nM.

`O=C(c1ccc(N2CCOCC2)cc1)n1nc(C2CCOCC2)c(F)c1NCc1ccc(Cl)s1` [Compound 53, N-[(5-chlorothiophen-2-yl)methyl]-4-fluoro-1-[4-(morpholin-4-yl)benzoyl]-3-(oxan-4-yl)-1H-pyrazol-5-amine]: the IC50 in data set [1] is < 100 nM. On to `O=C(c1ccsc1)n1nc(C2CCOCC2)c(F)c1NCc1ccc(Cl)s1` [Compound 54, N-[(5-chlorothiophen-2-yl)methyl]-4-fluoro-3-(oxan-4-yl)-1-(thiophene-3-carbonyl)-1H-pyrazol-5-amine], for which the half-inhibitory concentration (IC50) in data set [1] is < 100 nM. In the case of `COc1ccccc1C(=O)n1nc(NCc2ccc(Cl)s2)c(F)c1C1CCN(S(=O)(=O)c2cccc3c(N(C)C)cccc23)CC1` [Compound 55, N-[(5-chlorothiophen-2-yl)methyl]-5-(1-[5-(dimethylamino)naphthalen-1-yl]sulfonylpiperidin-4-yl)-4-fluoro-1-(2-methoxybenzoyl)-1H-pyrazol-3-amine], the 50% inhibitory concentration (IC50) in data set [1] was > 1000 nM. With `COc1ccccc1C(=O)N(Cc1ccc(Cl)s1)c1[nH]nc(-c2ccc3c(c2)CCCC3=O)c1F` [Compound 56, N-[(5-chlorothiophen-2-yl)methyl]-N-[4-fluoro-3-(5-oxo-5,6,7,8-tetrahydronaphthalen-2-yl)-1H-pyrazol-5-yl]-2-methoxybenzamide], the IC50 in data set [1] is > 1000 nM.

On to `CN(C)c1cccc2c(S(=O)(=O)Nc3ccc(C(=O)n4nc(C5CCNCC5)c(F)c4NCc4ccc(Cl)s4)cc3)cccc12` [Compound 57, N-[4-(5-[(5-chlorothiophen-2-yl)methyl]amino-4-fluoro-3-(piperidin-4-yl)-1H-pyrazole-1-carbonyl)phenyl]-5-(dimethylamino)naphthalene-1-sulfonamide], for which the half-inhibitory concentration (IC50) in data set [1] was < 100 nM. Consider `CN(C)c1cccc2c(S(=O)(=O)Nc3ccc(C(=O)n4nc(-c5ccccc5)c(F)c4NCc4ccc(Cl)s4)cc3)cccc12` [Compound 58, N-[4-(5-[(5-chlorothiophen-2-yl)methyl]amino-4-fluoro-3-phenyl-1H-pyrazole-1-carbonyl)phenyl]-5-(dimethylamino)naphthalene-1-sulfonamide], for which, in data set [1], the half-maximal inhibitory concentration (IC50) was < 100 nM. On to `COc1ccccc1C(=O)n1nc(-c2ccccn2)c(F)c1NCc1ccccc1` [Compound 59, N-benzyl-4-fluoro-1-(2-methoxybenzoyl)-3-(pyridin-2-yl)-1H-pyrazol-5-amine], for which the 50% inhibitory concentration (IC50) in data set [1] was < 100 nM. As to `COc1ccccc1C(=O)n1nc(-c2ccccc2)c(F)c1NCc1ccccc1` [Compound 60, N-benzyl-4-fluoro-1-(2-methoxybenzoyl)-3-phenyl-1H-pyrazol-5-amine], the half-inhibitory concentration (IC50) in data set [1] was < 100 nM. Still for that read-out and setting: next, `O=C(n1nc(C2CCOCC2)c(F)c1NCc1ccc(Cl)s1)C1(CO)CC1` [Compound 61, [1-(5-[(5-chlorothiophen-2-yl)methyl]amino-4-fluoro-3-(oxan-4-yl)-1H-pyrazole-1-carbonyl)cyclopropyl]methanol]: < 100 nM; `O=C(n1nc(-c2ccccc2)c(F)c1NCc1ccc(Cl)s1)C1(CO)CC1` [Compound 62, [1-(5-[(5-chlorothiophen-2-yl)methyl]amino-4-fluoro-3-phenyl-1H-pyrazole-1-carbonyl)cyclopropyl]methanol]: < 100 nM. In the case of `CC(=O)Nc1c(-c2ccccc2)cccc1S(=O)(=O)N[C@@H](CCCc1ccc(N)cn1)C(=O)N1CCC(=C(F)F)CC1` [SSR182289], the liver fibrogenesis entry in data set [2] was “decreased liver fibrogenesis significantly”. With `CC1CNc2c(cccc2S(=O)(=O)N[C@@H](CCCNC(=N)N)C(=O)N2CC[C@@H](C)C[C@@H]2C(=O)O)C1` (stereo partly shown) [argatroban], in data set [3], the survival time entry is recorded as “prolonged” and the tumor mass entry was “reduced”.

Regarding `CCCCCCOC(=O)NC(=N)c1ccc(NCc2nc3cc(C(=O)N(CCC(=O)OCC)c4ccccn4)ccc3n2C)cc1` [dabigatran etexilate], the “profibrotic events in lung fibroblasts, including production of collagen and connective tissue growth factor” value in data set [4] was “reduced”. In data set [5] (mouse, in vivo), the “invasion and metastasis of malignant breast tumors” value is on record as “inhibited”; the “reduction of tumor cells in the blood and liver micrometastases” value is 50-60%. For the same molecule, the weight loss entry in data set [5] (treated mice, 4 weeks) is reported as “no weight loss”.

Consider `N=C(N)c1ccc(CNC(=O)[C@@H]2CCN2C(=O)[C@H](NCC(=O)O)C2CCCCC2)cc1` [melagatran], for which the kidney graft survival entry in data set [6] (at 3 months) is recorded as “drastically improved”. In addition, the ischemia reperfusion injury entry in data set [6] (kidney transplant model) is given as “greatly reduced”. Turning to [dR][Oic]P[dA][Phe(4-Me)], the thrombin-stimulated invasion entry in data set [7] is reported as “block”. Moreover, the overall tumor weight result in data set [8] (compared to untreated mice) is “reduced”. In addition, the “rate of tumor growth” value in data set [8] (mice dosed through drinking water) was “reduced”.

(Values after US9951025B2, “Halogenopyrazoles as inhibitors of thrombin” (VERSEON CORPORATION, priority 2013, dated 2018).)
